Laboratory results as given in PubChem BioAssay AID2060483 (Molecular Pharmacology Branch, DTP, NCI, 2025).

Test system: K24384-001-R-PDC complex spheroids, viability
Test: Anticancer human tumor K24384-001-R-PDC patient-derived pancreatic adenocarcinoma cell line growth inhibition [GQUAD]
Details: for IC50: curve of first compound; for viability, T/C: stronger effect = lower value; active = viability on the fitted dose curve at most 10% of control; inactive = the rest
Summary of the method: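 Tumor cells were grown as complex spheroids with HUVEC endothelial cells and mesenchymal stem cells as stroma. G-quadruplex stabilizers were combined with targeted agents over half-log dilutions from near the clinical Cmax, or from 10 microM.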

[1] = second compound 0.0316 µM, first compound 0.0316 µM
[2] = second compound 0.0316 µM, first compound 0.1 µM
[3] = second compound 0.0316 µM, first compound 0.316 µM
[4] = second compound 0.0316 µM, first compound 1 µM
[5] = second compound 0.0316 µM, first compound 3.16 µM
[6] = second compound 0.0316 µM, first compound 10 µM
[7] = second compound 0.1 µM, first compound 0.0316 µM
[8] = second compound 0.1 µM, first compound 0.1 µM
[9] = second compound 0.1 µM, first compound 0.316 µM
[10] = second compound 0.1 µM, first compound 1 µM
[11] = second compound 0.1 µM, first compound 3.16 µM
[12] = second compound 0.1 µM, first compound 10 µM
[13] = second compound 0.316 µM, first compound 0.0316 µM
[14] = second compound 0.316 µM, first compound 0.1 µM
[15] = second compound 0.316 µM, first compound 0.316 µM
[16] = second compound 0.316 µM, first compound 1 µM
[17] = second compound 0.316 µM, first compound 3.16 µM
[18] = second compound 0.316 µM, first compound 10 µM
[19] = second compound 1 µM, first compound 0.0316 µM
[20] = second compound 1 µM, first compound 0.1 µM
[21] = second compound 1 µM, first compound 0.316 µM
[22] = second compound 1 µM, first compound 1 µM
[23] = second compound 1 µM, first compound 3.16 µM
[24] = second compound 1 µM, first compound 10 µM
[25] = second compound 3.16 µM, first compound 0.0316 µM
[26] = second compound 3.16 µM, first compound 0.1 µM
[27] = second compound 3.16 µM, first compound 0.316 µM
[28] = second compound 3.16 µM, first compound 1 µM
[29] = second compound 3.16 µM, first compound 3.16 µM
[30] = second compound 3.16 µM, first compound 10 µM
[31] = second compound 10 µM, first compound 0.0316 µM
[32] = second compound 10 µM, first compound 0.1 µM
[33] = second compound 10 µM, first compound 0.316 µM
[34] = second compound 10 µM, first compound 1 µM
[35] = second compound 10 µM, first compound 3.16 µM
[36] = second compound 10 µM, first compound 10 µM
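Note: spheroids exposed to compounds for seven days.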

COc1ccc([C@@H](O)c2cc(-c3ncnc4cc(N5CCOCC5)ccc34)c(F)cc2Cl)nn1 + Cc1cnc(CNC(=O)c2c(=O)c3ccc(N4CCCN(C)CC4)nc3n3c2sc2ccccc23)cn1
< 31.6 nM: IC50 (second compound 1 µM) | IC50 (second compound 3.16 µM) | IC50 (second compound 10 µM)
1240 nM: IC50 (second compound 0.0316 µM)
inactive: viability, T/C [1] 89.9% | viability, T/C [2] 81.5% | viability, T/C [3] 70.8% | viability, T/C [4] 45.9% | viability, T/C [5] 43.8% | viability, T/C [6] 23.6% | viability, T/C [7] 57.2% | viability, T/C [8] 68.7% | viability, T/C [9] 46.5% | viability, T/C [10] 42.3% | viability, T/C [11] 39.1% | viability, T/C [12] 17.6% | viability, T/C [13] 48.6% | viability, T/C [14] 57.6% | viability, T/C [15] 43.1% | viability, T/C [16] 41.5% | viability, T/C [17] 34% | viability, T/C [18] 12.6% | viability, T/C [19] 40.5% | viability, T/C [20] 59.9% | viability, T/C [21] 35.4% | viability, T/C [22] 34.1% | viability, T/C [23] 21.7% | viability, T/C [24] 12.7% | viability, T/C [25] 36.7% | viability, T/C [26] 41.9% | viability, T/C [27] 33.4% | viability, T/C [28] 29.8% | viability, T/C [29] 24.6% | viability, T/C [30] 10.2% | viability, T/C [31] 28.1% | viability, T/C [32] 29.9% | viability, T/C [33] 27.4% | viability, T/C [34] 27.4% | viability, T/C [35] 16.8%
active: viability, T/C [36] 0.52%
120 nM: IC50 (second compound 0.316 µM)
497 nM: IC50 (second compound 0.1 µM)

CCc1c2c(nc3ccc(O)cc13)-c1cc3c(c(=O)n1C2)COC(=O)[C@]3(O)CC + Cc1cnc(CNC(=O)c2c(=O)c3ccc(N4CCCN(C)CC4)nc3n3c2sc2ccccc23)cn1
< 0.999 nM: IC50 (second compound 0.316 µM) | IC50 (second compound 1 µM) | IC50 (second compound 3.16 µM) | IC50 (second compound 10 µM)
8.3 nM: IC50 (second compound 0.1 µM)
9.23 nM: IC50 (second compound 0.0316 µM)
active: viability, T/C [21] 6.84% | viability, T/C (second compound 3.16 µM, first compound 0.0999 µM) 8.56% | viability, T/C [27] 0.57% | viability, T/C (second compound 10 µM, first compound 0.00999 µM) 13.3% | viability, T/C [31] 0.4% | viability, T/C (second compound 10 µM, first compound 0.0999 µM) 0.25% | viability, T/C [33] 0.2%
inactive: viability, T/C (second compound 0.0316 µM, first compound 0.000999 µM) 73.2% | viability, T/C (second compound 0.0316 µM, first compound 0.00316 µM) 60.8% | viability, T/C (second compound 0.0316 µM, first compound 0.00999 µM) 53.2% | viability, T/C [1] 29.8% | viability, T/C (second compound 0.0316 µM, first compound 0.0999 µM) 31.9% | viability, T/C [3] 18% | viability, T/C (second compound 0.1 µM, first compound 0.000999 µM) 50% | viability, T/C (second compound 0.1 µM, first compound 0.00316 µM) 64.9% | viability, T/C (second compound 0.1 µM, first compound 0.00999 µM) 45.7% | viability, T/C [7] 36.7% | viability, T/C (second compound 0.1 µM, first compound 0.0999 µM) 29.3% | viability, T/C [9] 16.1% | viability, T/C (second compound 0.316 µM, first compound 0.000999 µM) 41.4% | viability, T/C (second compound 0.316 µM, first compound 0.00316 µM) 58.4% | viability, T/C (second compound 0.316 µM, first compound 0.00999 µM) 38.2% | viability, T/C [13] 34.8% | viability, T/C (second compound 0.316 µM, first compound 0.0999 µM) 19.9% | viability, T/C [15] 14% | viability, T/C (second compound 1 µM, first compound 0.000999 µM) 38.8% | viability, T/C (second compound 1 µM, first compound 0.00316 µM) 41.4% | viability, T/C (second compound 1 µM, first compound 0.00999 µM) 31.3% | viability, T/C [19] 23.8% | viability, T/C (second compound 1 µM, first compound 0.0999 µM) 18.4% | viability, T/C (second compound 3.16 µM, first compound 0.000999 µM) 37.4% | viability, T/C (second compound 3.16 µM, first compound 0.00316 µM) 43.7% | viability, T/C (second compound 3.16 µM, first compound 0.00999 µM) 28.8% | viability, T/C [25] 20.1% | viability, T/C (second compound 10 µM, first compound 0.000999 µM) 29.2% | viability, T/C (second compound 10 µM, first compound 0.00316 µM) 14.6%

CC1COCCN1c1cc(-c2ccnn2C)c2ccnc(-c3ccn[nH]3)c2n1 (stereo unspecified) + CN(C)c1ccc(Nc2c3ccc(NC(=O)CCN4CCCC4)cc3nc3cc(NC(=O)CCN4CCCC4)ccc23)cc1
111 nM: IC50 (second compound 1 µM)
88.3 nM: IC50 (second compound 3.16 µM)
89.1 nM: IC50 (second compound 0.1 µM)
131 nM: IC50 (second compound 0.316 µM)
113 nM: IC50 (second compound 10 µM)
72.2 nM: IC50 (second compound 0.0316 µM)
inactive: viability, T/C [1] 69.7% | viability, T/C [2] 41.9% | viability, T/C [3] 35.4% | viability, T/C [4] 24.4% | viability, T/C [5] 29.6% | viability, T/C [6] 32.9% | viability, T/C [7] 67.6% | viability, T/C [8] 48% | viability, T/C [9] 27.2% | viability, T/C [10] 24.9% | viability, T/C [11] 30.9% | viability, T/C [12] 31.9% | viability, T/C [13] 79.2% | viability, T/C [14] 56.4% | viability, T/C [15] 26.1% | viability, T/C [16] 23.6% | viability, T/C [17] 33.6% | viability, T/C [18] 32.3% | viability, T/C [19] 78.1% | viability, T/C [20] 52% | viability, T/C [21] 24.3% | viability, T/C [22] 28.8% | viability, T/C [23] 34.2% | viability, T/C [24] 30.6% | viability, T/C [25] 91.4% | viability, T/C [26] 44.7% | viability, T/C [27] 30.9% | viability, T/C [28] 32.5% | viability, T/C [29] 30.8% | viability, T/C [30] 24.6% | viability, T/C [31] 79.6% | viability, T/C [32] 49% | viability, T/C [33] 43.1% | viability, T/C [34] 30.6% | viability, T/C [35] 28.5% | viability, T/C [36] 31.7%
